Structures can show the parent of a compound that is named as a salt.

In general, IC50 refers to the concentration that inhibits the measured activity by half. A higher IC50 goes with lower potency.
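Also: rho kinase enzyme reaction halted with EDTA, phospho- and non-phospho peptide separated for read-out, kinase activity inhibition derived across a dose-response series, DMSO under 2%.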

The target of the experiment is ROCK2 (Homo sapiens (Human), UniProt O75116). Description: biochemical.
ROCK2, sequence (O75116 whole entry, species assumed): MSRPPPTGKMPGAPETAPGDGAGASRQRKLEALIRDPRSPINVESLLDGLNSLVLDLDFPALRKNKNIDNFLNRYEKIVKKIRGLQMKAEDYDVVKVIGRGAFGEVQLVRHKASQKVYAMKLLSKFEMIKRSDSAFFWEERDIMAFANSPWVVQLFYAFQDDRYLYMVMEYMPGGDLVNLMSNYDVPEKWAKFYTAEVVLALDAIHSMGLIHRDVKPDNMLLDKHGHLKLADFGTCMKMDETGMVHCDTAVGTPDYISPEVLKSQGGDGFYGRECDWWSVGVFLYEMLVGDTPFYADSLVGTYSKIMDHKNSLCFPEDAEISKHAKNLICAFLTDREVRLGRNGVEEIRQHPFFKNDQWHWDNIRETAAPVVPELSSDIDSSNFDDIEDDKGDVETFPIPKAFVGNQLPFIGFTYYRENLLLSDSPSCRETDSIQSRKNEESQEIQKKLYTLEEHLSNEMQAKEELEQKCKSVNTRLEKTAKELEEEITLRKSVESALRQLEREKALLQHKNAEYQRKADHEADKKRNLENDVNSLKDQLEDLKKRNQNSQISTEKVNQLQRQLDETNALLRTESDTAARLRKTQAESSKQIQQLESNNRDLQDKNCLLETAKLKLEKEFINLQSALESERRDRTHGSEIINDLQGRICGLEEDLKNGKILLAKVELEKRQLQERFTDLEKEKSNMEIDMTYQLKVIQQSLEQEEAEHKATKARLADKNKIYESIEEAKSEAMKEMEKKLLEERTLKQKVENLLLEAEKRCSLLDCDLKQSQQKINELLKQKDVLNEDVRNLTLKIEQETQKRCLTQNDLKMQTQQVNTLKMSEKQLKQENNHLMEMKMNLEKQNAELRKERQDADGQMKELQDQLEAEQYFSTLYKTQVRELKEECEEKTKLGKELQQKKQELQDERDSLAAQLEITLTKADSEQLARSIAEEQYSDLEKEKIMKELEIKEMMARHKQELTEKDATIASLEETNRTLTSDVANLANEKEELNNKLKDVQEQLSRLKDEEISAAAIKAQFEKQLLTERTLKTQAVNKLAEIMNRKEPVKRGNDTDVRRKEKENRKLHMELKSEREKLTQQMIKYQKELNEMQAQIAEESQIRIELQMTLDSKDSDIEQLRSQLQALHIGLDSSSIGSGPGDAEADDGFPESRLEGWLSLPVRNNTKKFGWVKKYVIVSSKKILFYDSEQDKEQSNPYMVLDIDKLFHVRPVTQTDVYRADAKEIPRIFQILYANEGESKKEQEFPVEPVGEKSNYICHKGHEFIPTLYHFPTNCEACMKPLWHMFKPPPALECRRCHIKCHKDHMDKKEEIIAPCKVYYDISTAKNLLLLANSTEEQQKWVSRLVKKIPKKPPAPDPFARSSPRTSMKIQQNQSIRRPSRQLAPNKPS
`COc1nc(N2CCC(N3CC[C@H](F)C3)C2=O)ccc1-c1cn[nH]c1` (mixture of isomers) [Example 290, (3S)-3-fluoro-1′-(6-methoxy-5-(1H-pyrazol-4-yl)pyridin-2-yl)-[l,3′-bipyrrolidin]-2′-one hydrochloride] yielded an IC50 of 100 to 2200 nM.
As for `COc1nc(N2CCC(N3CCC(OC)CC3)C2=O)ccc1-c1cn[nH]c1` (racemic) [Example 291, 1-(6-methoxy-5-(1H-pyrazol-4-yl)pyridin-2-yl)-3-(4-methoxypiperidin-1-yl)pyrrolidin-2-one hydrochloride], the figure is 100 to 2200 nM; as for `COc1nc(N2CCC(N3CCC(=O)CC3)C2=O)ccc1-c1cn[nH]c1` (racemic) [Example 292, 1-(1-(6-methoxy-5-(1H-pyrazol-4-yl)pyridin-2-yl)-2-oxopyrrolidin-3-yl)piperidin-4-one hydrochloridehydrate], 10 to 100 nM.
In the case of `COc1nc(N2CCC(N3CC[C@@H](N(C)C)C3)C2=O)ccc1-c1cn[nH]c1` (mixture of isomers) [Example 293, (3R)-3-(dimethylamino)-1′-(6-methoxy-5-(1H-pyrazol-4-yl)pyridin-2-yl)-[l,3′-bipyrrolidin]-2′-one], the IC50 lay within 100 to 2200 nM.
The result for `COc1nc(N2CCC(N3CC[C@H](NC(C)=O)C3)C2=O)ccc1-c1cn[nH]c1` (mixture of isomers) [Example 294, N-((3S)-1′-(6-methoxy-5-(1H-pyrazol-4-yl)pyridin-2-yl)-2′-oxo-[1,3′-bipyrrolidin]-3-yl)acetamide] reads 100 to 2200 nM; that for `COc1nc(N2CCC(N3CC[C@H](O)C3)C2=O)ccc1-c1cn[nH]c1` (mixture of isomers) [Example 295, (3S)-3-hydroxy-1′-(6-methoxy-5-(1H-pyrazol-4-yl)pyridin-2-yl)-[l,3′-bipyrrolidin]-2′-one], 100 to 2200 nM; that for `COc1nc(N2CCC(N3CCC(F)CC3)C2=O)ccc1-c1cn[nH]c1` (racemic) [Example 296, 3-(4-fluoropiperidin-1-yl)-1-(6-methoxy-5-(1H-pyrazol-4-yl)pyridin-2-yl)pyrrolidin-2-one hydrochloride], 10 to 100 nM.
As for `COc1ccc(C(N)=O)c(NC2CCN(c3ccc(-c4cn[nH]c4)cc3)C2=O)c1` (racemic) [Example 324, 2-((1-(4-(1H-pyrazol-4-yl)phenyl)-2-oxopyrrolidin-3-yl)amino)-4-methoxybenzamide], the figure is 100 to 2200 nM; as for `COc1ccc(C(=O)OC2CCN(c3ccc(-c4cn[nH]c4)cc3)C2=O)c(N)c1` (racemic) [Example 327, 1-(4-(1H-pyrazol-4-yl)phenyl)-2-oxopyrrolidin-3-yl2-amino-4-methoxybenzoate], 100 to 2200 nM; as for `COc1cc(NC2CCN(c3ccc(-c4cn[nH]c4)c(OCCN(C)C)c3)C2=O)ccc1F` (racemic) [Example 346, 1-(3-(2-(dimethylamino)ethoxy)-4-(1H-pyrazol-4-yl)phenyl)-3-((4-fluoro-3-methoxyphenyl)amino)pyrrolidin-2-one], 100 to 2200 nM.
As for `COc1cccc(NC2CCN(c3ccc(-c4cn[nH]c4)c(C(O)C(F)(F)F)c3)C2=O)c1` (racemic) [Example 348, 1-(4-(1H-pyrazol-4-yl)-3-(2,2,2-trifluoro-1-hydroxyethyl)phenyl)-3-((3-methoxyphenyl)amino)pyrrolidin-2-one], the figure is 100 to 2200 nM.
Consider `COc1ccc(NC2CCN(c3ccc(-c4cn[nH]c4)cc3)C2=O)cc1F` (single isomer, unassigned) [Example 13, 1-(4-(1H-Pyrazol-4-yl)phenyl)-3-((3-fluoro-4-methoxyphenyl)amino)pyrrolidin-2-one], for which the IC50 fell in the range of 100 to 2200 nM.
`COc1c(F)cccc1NC1CCN(c2ccc(-c3cn[nH]c3)cc2)C1=O` (single isomer, unassigned) [Example 15, 1-(4-(1H-pyrazol-4-yl)phenyl)-3-((3-fluoro-2-methoxyphenyl)amino)pyrrolidin-2-one] displayed an IC50 of under 10 nM.

Values taken from patent US10112929B2, “Lactams as inhibitors of rock” (BRISTOL-MYERS SQUIBB COMPANY, priority 2015, dated 2018).
